From patent US7018796B2, “Preincubation assay methods” (Shionogi & Co., Ltd., priority 2000, dated 2006)

Molecular target: T1, HCV RNA-dependent RNA polymerase (Hepatitis C virus genotype 1a, UniProt P27958)
T1 construct: HCV RNA-dependent RNA polymerase is encoded in the NS5B (nonstructural protein 5B) region of HCV; made in house; host or cells: insect cells or E. coli
Assay: DIG-UTP assay without radioisotope-labeled substrate, with pre-incubation (Example 2)
Assay type: biochemical
Settings: pre-incubation 25° C. 1 hr, I-1 0.5 μg/ml, 3′-dUTP 0.7 μM, A 100 μg/ml, B 50 μg/ml, C 25 μg/ml
Method: In Example 1, ^3H-UTP, that is UTP labeled with tritium as radioisotope was used as substrate in the assay with pre-incubation using HCV RNA-dependent RNA polymerase. Herein, digoxigenin-labeled UTP (DIG-UTP) instead of ^3H-UTP was used as substrate in the assay with pre-incubation using HCV RNA-dependent RNA polymerase. • 1) Streptavidin (1 mg/ml) was dissolved in the phosphate buffer saline (PBS) containing NaCl (0.137 M), KCl (2.68 mM), potassium dihydrogenphosphate (1.47 mM) and sodium phosphate (8.06 mM). • 2) The streptavidin solution was diluted 25-fold with the carbonate buffer containing sodium carbonate (0.9 M) and sodium hydrogencarbonate (0.1 M). • 3) The 25-fold streptavidin solution (50 μl/well) was transferred to a well of 96 wells-microtiter palate with flat bottom for immunoassay and then the plate was kept at 4° C. over night. • 4) After the 96 wells-microtiter plate was coated with streptavidin, the well was washed twice by adding, mixing and draining PBS (200 μl/well). • 5) The skim milk dissolved with PBS (1%, 300 μl) was transferred into each well and was kept at room temperature for 30 min. • 6) After the plate was washed once with PBS (200 μl/well), the well was filled with PBS (300 μl/well) and then the plate was stored at 4° C. • 7) After the PBS was drained from the streptavidin-coated plate stored under the condition described in 6), the well was washed once with PBS (200 μl/well) and was filled with de-ionized water (300 μl/well). • 8) The buffer I (10 μl) containing Tris-HCl (100 mM, pH 7.5), MgCl2 (25 mM), dithiothreitol (5 mM), KCl (125 mM) and ethylenediaminetetraacetic acid (5 mM) was transferred to a polypropylene tube and then poly(A) solution (6.25 μg/ml, 10 μl), biotin-labeled oligo(U)12 solution (3 μg/ml, 10 μl), water (10 μl) and HCV RNA-dependent RNA polymerase solution (10 μl) were added into the tube and mixed calmly. • 9) De-ionized water was drained from the plate described in 7), and the solution (50 μl/well) at once after the mixing described in 8) was transferred to each well. After mixing by a plate mixer, the solution was pre-incubated at 25° C. for 1 hr. • 10) On the other hand, the buffer I (10 μl) was transferred into another tube, and UTP (1 μM, 10 μl), DIG-UTP (300 μM, 1 μl), water (24 μl) and a test compound dissolved with dimethyl sulfoxide or water (5 μl) were added to the tube and mixed calmly. Concentrations of the compounds used were as follows.
• 11) The mixed solution (50 μl/well) described in 10) was transferred into each well after the pre-incubation described in 9), mixed by a plate mixer and then incubated at 25° C. for 1 hr. • 12) When the enzyme reaction was in 1 hr, the enzyme reaction was stopped by adding ethylenediaminetetraacetic acid (0.1 M, 50 μl/well). • 13) The plate was washed twice with PBS (200 μl/well) after end of the enzyme reaction. • 14) Next, alkaline phosphatase-labeled anti-DIG antibody (3 U/ml, 100 μl/well) diluted 250-fold with PBS containing skim milk (0.5%) was transferred each well. […] The substrate solution was transferred into each well of the plate, mixed by a plate mixer and then incubated at 25° C. for 1 hr until the color appears in the solution. • 17) The plate was set on a plate reader and the absorbance was measured at 405 nm. • 18) The inhibitory rate was calculated from the optical density (unit; OD) measured as follows. […]

T1 sequence (P27958 2421-3011): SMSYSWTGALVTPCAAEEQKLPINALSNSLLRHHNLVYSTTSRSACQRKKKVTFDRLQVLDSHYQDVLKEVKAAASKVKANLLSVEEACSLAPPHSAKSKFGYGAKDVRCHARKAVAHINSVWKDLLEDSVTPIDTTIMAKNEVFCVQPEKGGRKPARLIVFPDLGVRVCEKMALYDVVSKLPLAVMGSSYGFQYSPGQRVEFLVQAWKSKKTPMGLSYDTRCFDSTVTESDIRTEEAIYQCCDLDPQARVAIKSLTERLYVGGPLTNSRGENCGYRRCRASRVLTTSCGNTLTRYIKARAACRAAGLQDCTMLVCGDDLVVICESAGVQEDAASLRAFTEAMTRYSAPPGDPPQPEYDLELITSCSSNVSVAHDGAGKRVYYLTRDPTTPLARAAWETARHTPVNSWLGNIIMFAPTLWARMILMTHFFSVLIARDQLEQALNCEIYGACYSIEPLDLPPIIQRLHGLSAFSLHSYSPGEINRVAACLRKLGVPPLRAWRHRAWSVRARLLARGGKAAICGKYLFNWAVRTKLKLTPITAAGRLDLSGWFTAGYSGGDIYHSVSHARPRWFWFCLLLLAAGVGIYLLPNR

| SMILES | inhibition at 0.5 µg/mL (read-out: Inhibitory rate, treatment of pre-incubation +) [%] | Inhibitory rate, treatment of pre-incubation + [%] |
| --- | --- | --- |
| O=C(O)/C(O)=C/C(=O)c1cccc(O)c1 [Compound I-1] | 52 |  |
| O=c1ccn([C@@H]2O[C@H](COP(=O)(O)OP(=O)(O)OP(=O)(O)O)C[C@H]2O)c(=O)[nH]1 [3′-dUTP, 3′-deoxyuridine triphosphate] |  | 50 |
| Cc1oc(-c2ccccc2)nc1CCOc1ccc(C=C2C(=O)NC(=O)NC2=O)cc1 [Compound A] |  | 24 |
| CCCCC1=N/C(=C\c2ccccc2OCC(=O)O)C(=O)N1Cc1ccc(-c2ccccc2-c2nnn[nH]2)cc1 [Compound C] |  | 15 |
| O=C1NC(=O)C(=Cc2ccc(OCCc3cccc4ccccc34)cc2)C(=O)N1 [Compound B] |  | 20 |
